The source of these data is patent publication US20230159469A1, “NOVEL PHTHALAZINE DERIVATIVE HAVING ECTONUCLOEOTIDE PYROPHOSPHATASE/PHOSPHODIESTE RASE INHIBITORY ACTIVITY, AND USE THEREOF” (TXINNO BIOSCIENCE INC., priority 2020, published 2023).

Each structure is given as a SMILES string. Where a name gives a salt, the structure may show the parent alone.

The assay deals with T1, human recombinant ENPP1 (Homo sapiens, UniProt P22413).
T1 construct: purchased R & D systems
T1 sequence (P22413 1-925): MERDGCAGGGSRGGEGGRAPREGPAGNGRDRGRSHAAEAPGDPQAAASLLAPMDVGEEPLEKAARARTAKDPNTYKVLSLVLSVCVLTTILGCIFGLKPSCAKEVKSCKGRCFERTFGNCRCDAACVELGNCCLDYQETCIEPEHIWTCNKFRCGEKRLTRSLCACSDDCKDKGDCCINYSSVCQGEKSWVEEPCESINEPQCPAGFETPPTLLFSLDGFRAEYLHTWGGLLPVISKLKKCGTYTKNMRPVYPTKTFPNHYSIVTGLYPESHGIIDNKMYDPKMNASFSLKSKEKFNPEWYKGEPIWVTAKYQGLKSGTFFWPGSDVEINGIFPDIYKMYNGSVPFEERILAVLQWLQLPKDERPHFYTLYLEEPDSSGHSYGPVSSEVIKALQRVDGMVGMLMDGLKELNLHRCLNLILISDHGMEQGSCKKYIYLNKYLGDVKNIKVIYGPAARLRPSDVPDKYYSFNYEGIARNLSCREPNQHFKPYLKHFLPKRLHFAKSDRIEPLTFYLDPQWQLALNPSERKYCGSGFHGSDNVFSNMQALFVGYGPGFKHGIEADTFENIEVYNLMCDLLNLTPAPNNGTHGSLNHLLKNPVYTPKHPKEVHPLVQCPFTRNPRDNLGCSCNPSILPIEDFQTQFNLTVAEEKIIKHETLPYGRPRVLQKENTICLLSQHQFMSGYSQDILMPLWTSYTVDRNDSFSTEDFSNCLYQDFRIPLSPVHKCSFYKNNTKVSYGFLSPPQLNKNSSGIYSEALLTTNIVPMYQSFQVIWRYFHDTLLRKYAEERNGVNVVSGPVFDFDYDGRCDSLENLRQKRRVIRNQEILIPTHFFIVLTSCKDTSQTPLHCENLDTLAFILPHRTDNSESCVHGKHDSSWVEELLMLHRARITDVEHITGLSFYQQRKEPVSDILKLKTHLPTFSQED
Description: ENPP1 enzyme assay with cGAMP substrate (AMP-Glo luminescence). The class given is biochemical. As to conditions: human recombinant ENPP1 3 ng/reaction, cGAMP 5 μM, 37° C. 90 minutes, read-out: Enzymatic activity (ENPP1 IC50). The method, boiled down: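 Human ENPP1 hydrolysis of 5 μM cGAMP was run for 90 min at 37° C in 50 mM Tris pH 8.5, 250 mM NaCl, 0.5 mM CaCl2, 1 μM ZnCl2, 5% glycerol, 1% DMSO. AMP product was quantified by AMP-Glo luminescence; IC50 came from 3-parameter fits of % residual activity, averaged over at least two runs.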
A word on the IC50: it is the midpoint of a concentration-inhibition curve. Regarding `COc1cc2c(-c3ccc(CN(C)S(N)(=O)=O)cc3F)n[nH]c(=O)c2cc1OC` [Compound No. 114, N-(4-(6,7-dimethoxy-4-oxo-3,4-dihydrophthalazin-1-yl)-3-fluorobenzyl)-N-methyl sulfamide hydrochloride], the IC50 was in the range of 1 to 10 µM. As for `COc1cc2c(-c3ccc(CNS(N)(=O)=O)c(F)c3F)n[nH]c(=O)c2cc1OC` [Compound No. 115, N-(4-(6,7-dimethoxy-4-oxo-3,4-dihydrophthalazin-1-yl)-2,3-difluorobenzyl)sulfamide hydrochloride], the figure is 1 to 10 µM. With `COc1cc2c(-c3ccc(CNS(N)(=O)=O)cc3C(F)(F)F)n[nH]c(=O)c2cc1OC` [Compound No. 116, hydrochloride] the figure was 1 to 10 µM; with `COc1cc2c(-c3ccc(CN(C)S(N)(=O)=O)c(F)c3F)n[nH]c(=O)c2cc1OC` [Compound No. 117, N-(4-(6,7-dimethoxy-4-oxo-3,4-dihydrophthalazin-1-yl)-2,3-difluorobenzyl)-N-methyl sulfamide hydrochloride], above 10 µM.

For the compound `COc1cc2c(-c3ccc(CN(C)S(N)(=O)=O)cc3C(F)(F)F)n[nH]c(=O)c2cc1OC` [Compound No. 118, hydrochloride], the IC50 was above 10 µM.

As for `COc1cc2c(-c3ccc(CNS(N)(=O)=O)c(C(F)(F)F)c3)n[nH]c(=O)c2cc1OC` [Compound No. 119, hydrochloride], the IC50 is 1 to 10 µM. Regarding `COc1cc2c(-c3ccc(CN(C)S(N)(=O)=O)c(C(F)(F)F)c3)n[nH]c(=O)c2cc1OC` [Compound No. 120, hydrochloride], the IC50 was above 10 µM. As for `NS(=O)(=O)N1CCc2ccc(-c3n[nH]c(=O)c4ccccc34)cc2C1` [Compound No. 121, 7-(4-oxo-3,4-dihydrophthalazin-1-yl)-3,4-dihydroisoquinoline-2(1H) sulfamide hydrochloride], the figure is below 1 µM; as for `COc1cc2c(-c3ccc4c(c3)CN(S(N)(=O)=O)CC4)n[nH]c(=O)c2cc1OC` [Compound No. 122, 7-(6,7-dimethoxy-4-oxo-3,4-dihydrophthalazin-1-yl)-3,4-dihydroisoquinoline-2(1H)-sulfamide], below 1 µM. In the case of `CC(NS(N)(=O)=O)c1ccc(-c2n[nH]c(=O)c3ccccc23)cc1` (centres unmarked) [Compound No. 123, N-(1-(4-(4-oxo-3,4-dihydrophthalazin-1-yl)phenyl)ethyl)sulfamide hydrochloride], the half-maximal inhibitory concentration (IC50) is below 1 µM. With `C[C@@H](NS(N)(=O)=O)c1ccc(-c2n[nH]c(=O)c3ccccc23)cc1` [Compound No. 124, (R)-N-(1-(4-(4-oxo-3,4-dihydrophthalazin-1-yl)phenyl)ethyl)sulfamide hydrochloride] the figure was below 1 µM; with `CC(C)(NS(N)(=O)=O)c1ccc(-c2n[nH]c(=O)c3ccccc23)cc1` [Compound No. 125, N-(2-(4-(4-oxo-3,4-dihydrophthalazin-1-yl)phenyl)propan-2-yl)sulfamide hydrochloride], 1 to 10 µM; with `NS(=O)(=O)NCc1ccc(-c2n[nH]c(=O)c3ccccc23)cc1C(F)(F)F` [Compound No. 126, N-(4-(4-oxo-3,4-dihydrophthalazin-1-yl)-2-(trifluoromethyl)benzyl)sulfamide hydrochloride], below 1 µM. As for `CN(Cc1ccc(-c2n[nH]c(=O)c3ccccc23)cc1)S(N)(=O)=O` [Compound No. 127, N-methyl-N-(4-(4-oxo-3,4-dihydrophthalazin-1-yl)benzyl)sulfamide], the figure is below 1 µM. `NS(=O)(=O)N1CCc2cc(-c3n[nH]c(=O)c4ccccc34)ccc2C1` [Compound No. 128, 6-(4-oxo-3,4-dihydrophthalazin-1-yl-3,4-dihydroisoquinoline-2(1H)-sulfonamide hydrochloride]: the IC50 lay within 1 to 10 µM.

With `Cn1nc(-c2ccc3c(c2)CCN(S(N)(=O)=O)C3)c2ccccc2c1=O` [Compound No. 129, 6-(3-methyl-4-oxo-3,4-dihydrophthalazin-1-yl)-3,4-dihydroisoquinoline-2(1H)-sulfonamide hydrochloride], the IC50 lay in the range of 1 to 10 µM. Consider `COc1cc2c(-c3ccc4c(c3)CCN(S(N)(=O)=O)C4)n[nH]c(=O)c2cc1OC` [Compound No. 130, 6-(6,7-dimethoxy-4-oxo-3,4-dihydrophthalazin-1-yl)-3,4-dihydroisoquinoline-2(1H)-sulfonamide hydrochloride], for which the IC50 is 1 to 10 µM. With `COc1cc2c(-c3ccc4c(c3)CCN(S(N)(=O)=O)C4)nn(C)c(=O)c2cc1OC` [Compound No. 131, 6-(6,7-dimethoxy-3-methyl-4-oxo-3,4-dihydrophthalazin-1-yl)-3,4-dihydroisoquinoline-2(1H)-sulfonamide hydrochloride] the figure was 1 to 10 µM; with `CC(C)(C)OC(=O)NCC1CCN(c2n[nH]c(=O)c3ccccc23)CC1` [Compound No. 132, tert-butyl ((1-(4-oxo-3,4-dihydrophthalazin-1-yl)piperidin-4-yl)methyl)carbamate], above 10 µM.

Regarding `COc1cc2c(N3CCC(CNC(=O)OC(C)(C)C)CC3)n[nH]c(=O)c2cc1OC` [Compound No. 133, tert-butyl ((1-(6,7-dimethoxy-4-oxo-3,4-dihydrophthalazin-1-yl)piperidin-4-yl)methyl)carbamate], the IC50 was above 10 µM. As for `NCC1CCN(c2n[nH]c(=O)c3ccccc23)CC1` [Compound No. 134, 4-(4-(aminomethyl)piperidin-1-yl)phthalazin-1(2H)-one hydrochloride], the figure is 1 to 10 µM; as for `COc1cc2c(N3CCC(CN)CC3)n[nH]c(=O)c2cc1OC` [Compound No. 135, 4-(4-(aminomethyl)piperidin-1-yl)-6,7-dimethoxyphthalazin-1(2H)-one hydrochloride], above 10 µM. With `CC(C)(C)OC(=O)NS(=O)(=O)NCC1CCN(c2n[nH]c(=O)c3ccccc23)CC1` [Compound No. 136, tert-butyl N-((1-(4-oxo-3,4-dihydrophthalazin-1-yl)piperidin-4-yl)methyl)sulfamoyl carbamate] the figure was above 10 µM. As for `COc1cc2c(N3CCC(CNS(=O)(=O)NC(=O)OC(C)(C)C)CC3)n[nH]c(=O)c2cc1OC` [Compound No. 137, tert-butyl N-((1-(6,7-dimethoxy-4-oxo-3,4-dihydrophthalazin-1-yl)piperidin-4-yl)methyl)sulfamoyl carbamate], the figure is above 10 µM. `NS(=O)(=O)NCC1CCN(c2n[nH]c(=O)c3ccccc23)CC1` [Compound No. 138, N-((1-(4-oxo-3,4-dihydrophthalazin-1-yl)piperidin-4-yl)methyl)sulfamide hydrochloride]: the IC50 was below 1 µM. With `COc1cc2c(N3CCC(CNS(N)(=O)=O)CC3)n[nH]c(=O)c2cc1OC` [Compound No. 139, N-((1-(6,7-dimethoxy-4-oxo-3,4-dihydrophthalazin-1-yl)piperidin-4-yl)methyl)sulfamide hydrochloride] the figure was below 1 µM; with `COc1cc2c(Nc3ccc(NS(N)(=O)=O)cc3)nn(C)c(=O)c2cc1OC` [Compound No. 140, N-(4-(6,7-dimethoxy-3-methyl-4-oxo-3,4-dihydrophthalazin-1-yl)-amino)phenyl)sulfamide hydrochloride], above 10 µM; with `COc1cc2c(Nc3cccc(NS(N)(=O)=O)c3)nn(C)c(=O)c2cc1OC` [Compound No. 141, N-(3-(6,7-dimethoxy-3-methyl-4-oxo-3,4-dihydrophthalazin-1-yl)-amino)phenyl)sulfamide hydrochloride], 1 to 10 µM. As for `NS(=O)(=O)NCCC1CCN(c2n[nH]c(=O)c3ccccc23)CC1` [Compound No. 142, N-(2-(1-(4-oxo-3,4-dihydrophthalazin-1-yl)piperidin-4-yl)ethyl)sulfamide trifluoroacetic acid], the figure is above 10 µM; as for `O=c1[nH]nc(Cc2ccccc2)c2ccccc12` [Compound No. 143, 4-benzylphthalazin-1(2H)-one], above 10 µM; as for `COc1cc2c(Cc3ccccc3)n[nH]c(=O)c2cc1OC` [Compound No. 144, 4-benzyl-6,7-dimethoxyphthalazin-1(2H)-one], above 10 µM. With `COc1cc2c(Cc3cccc(NC(=O)OC(C)(C)C)c3)n[nH]c(=O)c2cc1OC` [Compound No. 145, tert-butyl (3-((6,7-dimethoxy-4-oxo-3,4-dihydrophthalazin-1-yl)methyl)phenyl)carbamate] the figure was above 10 µM.
